Test results from paper PMC4390552 (Chemical biology & drug design, 2014).

Tests used:
Format in all cases: cell-based, human
[1] = system: HPASMC; experiment: MTT cell viability assay; conditions: 100 μM CPP (H2O2 0.5 mM), 30-min incubation, OD 570 nm, quadruplicate
[2] = system: ERK phosphorylation in HPASMC; experiment: Growth factor-stimulated ERK phosphorylation in HPASMC; conditions: for ERK activation in HPASMC by growth factor: 10 ng/mL PDGF or VEGF in serum-free medium, Western blot, three experiments
[3] = system: Akt phosphorylation in HPASMC; experiment: Growth factor-stimulated Akt phosphorylation in HPASMC; conditions: for Akt activation in HPASMC by growth factor: 10 ng/mL PDGF or VEGF in serum-free medium, Western blot, three experiments
[4] = system: ERK phosphorylation in HPAEC; experiment: Growth factor-stimulated ERK phosphorylation in HPAEC; conditions: for ERK activation in HPAEC by growth factor: 10 ng/mL PDGF or VEGF in serum-free medium, Western blot, three experiments
[5] = system: Akt phosphorylation in HPAEC; experiment: Growth factor-stimulated Akt phosphorylation in HPAEC; conditions: 10 ng/mL PDGF or VEGF in serum-free medium; Western blot, three experiments

OO [Hydrogen peroxide]
Effect on cell viability (MTT) [1]: statistically significant toxicity

VEGF
ERK activation in HPASMC by growth factor [2]: no activity
Akt activation in HPASMC by growth factor [3]: no activity
ERK activation in HPAEC by growth factor [4]: strong ERK phosphorylation
Concentration at which the dose response of ERK activation maximized ([4]; HPAEC, increasing VEGF in serum-free medium): 1 ng/mL
Akt activation in HPAEC by growth factor [5]: failed to activate Akt

EGF: epidermal growth factor (NSDSECPLSHDGYCLHDGVCMYIEALDKYACNCVVGYIGERCQYRDLKWWELR; UniProt P01133 971-1023, looked up)
ERK phosphorylation in HPASMC by EGF ([2]; 1 ng/mL EGF): induced the phosphorylation of both ERK and Akt
Akt phosphorylation in HPASMC by EGF ([3]; 1 ng/mL EGF): induced the phosphorylation of both ERK and Akt

PDGF
ERK activation in HPASMC by growth factor [2]: activated
Concentration at which the dose response of ERK activation maximized ([2]; HPASMC, increasing PDGF in serum-free medium): 1 ng/mL
Akt activation in HPASMC by growth factor [3]: activated
ERK activation in HPAEC by growth factor [4]: inactive
Akt activation in HPAEC by growth factor [5]: failed to activate Akt
